The subject of series [1] is Established Type II Collagen Arthritis. As to the kind of experiment: Established type II collagen arthritis, PO BID, 11 day. The source says: Effects of 1H-pyrrolo[2,3-b]pyridine series of compounds Administered PO, BID in 11 Day DBA/1OlaHsd Mouse Established Type II Collagen Arthritis
The target of another series is ITK (Homo sapiens (Human), UniProt Q08881). As to the kind of experiment: ITK kinase assay (radiometric filter assay). It counts as biochemical. Conditions: 10 μM ATP; 10-dose IC50 mode, 3 fold serial dilution starting at 100 μM; read-out: ITK kinase inhibition. The protocol:
(§1) All additions were done on ice, followed by the addition of ATP mix. Wells were uniformly mixed using an Eppendorff plate shaker and incubated at 30° C. for 20 min, and stopped by the addition of 5 μL of 3% phosphoric acid. Volume was increased to 100 μL by adding 0.8% phosphoric acid which was then transferred to PC filter mats (Millipore), pre-equilibrated with 70% ethanol and water. Plates were washed thrice with 100 μL 0.8% phosphoric acid and dried for an hour at 60° C. 100 μL scintillation fluid was added into each well and reading taken in Perkin Elmer TOPCOUNT beta counter.
(§2) The reactions were carried out at 10 μM ATP for ITK, JAK3 and other TEC and Janus family of kinase.

Another series deals with JAK3 (Homo sapiens (Human), UniProt P52333). Description: JAK3 kinase assay (radiometric filter assay). It counts as biochemical. The conditions noted are these: 10 μM ATP; 10-dose IC50 mode, 3 fold serial dilution starting at 100 μM; read-out: JAK3 kinase inhibition. The protocol: as §1, §2

Results on three molecules are retold here after patent US9834551B2, “Substituted pyrrolo[2,3-b]pyrazines and substituted pyrazolo[3,4-b]pyridines as ITK and JAK kinase inhibitors” (Arrien Pharmaceuticals LLC, priority 2013, dated 2017).

pIC50: −log10 of the molar value.

ITK, sequence (Q08881 whole entry): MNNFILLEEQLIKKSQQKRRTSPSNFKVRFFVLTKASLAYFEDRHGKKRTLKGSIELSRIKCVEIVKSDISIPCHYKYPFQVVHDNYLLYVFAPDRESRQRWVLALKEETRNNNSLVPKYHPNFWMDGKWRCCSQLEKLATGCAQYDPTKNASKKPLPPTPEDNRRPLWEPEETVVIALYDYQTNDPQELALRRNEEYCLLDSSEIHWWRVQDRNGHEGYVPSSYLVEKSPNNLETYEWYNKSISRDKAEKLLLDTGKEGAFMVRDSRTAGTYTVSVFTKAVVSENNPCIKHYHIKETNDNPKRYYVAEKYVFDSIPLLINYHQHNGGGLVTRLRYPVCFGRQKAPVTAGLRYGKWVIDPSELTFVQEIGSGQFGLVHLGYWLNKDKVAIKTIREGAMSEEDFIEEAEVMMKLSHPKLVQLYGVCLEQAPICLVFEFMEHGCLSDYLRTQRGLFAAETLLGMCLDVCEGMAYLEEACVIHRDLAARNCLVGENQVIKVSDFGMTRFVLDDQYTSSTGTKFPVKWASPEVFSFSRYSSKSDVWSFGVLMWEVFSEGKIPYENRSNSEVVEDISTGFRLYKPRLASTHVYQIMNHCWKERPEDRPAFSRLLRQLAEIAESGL
JAK3, sequence (P52333 whole entry): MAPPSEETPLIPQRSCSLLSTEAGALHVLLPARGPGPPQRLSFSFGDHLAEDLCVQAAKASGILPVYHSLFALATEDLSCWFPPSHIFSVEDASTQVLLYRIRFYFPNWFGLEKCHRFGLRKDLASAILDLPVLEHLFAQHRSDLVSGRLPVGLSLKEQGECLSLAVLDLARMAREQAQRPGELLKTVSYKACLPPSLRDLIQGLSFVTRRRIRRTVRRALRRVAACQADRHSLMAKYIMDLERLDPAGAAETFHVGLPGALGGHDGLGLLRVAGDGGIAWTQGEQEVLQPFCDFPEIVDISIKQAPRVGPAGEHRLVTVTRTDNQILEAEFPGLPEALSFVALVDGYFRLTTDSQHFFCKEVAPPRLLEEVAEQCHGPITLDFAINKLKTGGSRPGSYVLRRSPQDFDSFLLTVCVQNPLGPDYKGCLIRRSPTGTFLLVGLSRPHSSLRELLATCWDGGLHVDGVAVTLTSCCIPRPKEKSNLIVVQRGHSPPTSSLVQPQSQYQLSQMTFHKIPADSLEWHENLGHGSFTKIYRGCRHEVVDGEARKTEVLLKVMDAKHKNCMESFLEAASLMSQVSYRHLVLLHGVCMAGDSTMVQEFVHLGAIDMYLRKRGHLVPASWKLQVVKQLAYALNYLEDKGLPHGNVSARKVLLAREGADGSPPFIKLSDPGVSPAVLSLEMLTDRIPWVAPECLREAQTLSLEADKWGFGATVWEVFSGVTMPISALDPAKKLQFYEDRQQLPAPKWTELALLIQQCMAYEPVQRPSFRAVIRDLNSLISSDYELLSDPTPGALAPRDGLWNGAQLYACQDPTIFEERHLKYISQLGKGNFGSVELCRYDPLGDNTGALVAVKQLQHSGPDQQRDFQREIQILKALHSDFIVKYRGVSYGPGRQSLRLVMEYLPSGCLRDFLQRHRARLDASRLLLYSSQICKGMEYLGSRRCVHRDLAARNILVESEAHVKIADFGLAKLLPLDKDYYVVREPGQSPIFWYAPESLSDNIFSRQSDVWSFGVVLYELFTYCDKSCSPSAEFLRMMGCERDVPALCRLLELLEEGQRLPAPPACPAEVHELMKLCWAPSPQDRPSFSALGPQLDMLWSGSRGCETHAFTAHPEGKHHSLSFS

As for `C[C@@H]1CCN(C(=O)CC#N)C[C@@H]1N(C)c1ncnc2[nH]ccc12` [CP-690550/Tofacitinib, Tofacitinib], the body weight entry in series [1] (60 mg/Kg) is “body weight change from day 1”. The “effectiveness, suppression of the inflammatory response” value in series [1] (collagen-induced arthritis in mice, PO BID) stood at 97%.
For the molecule `CCC#CC(=O)Nc1cc(-c2cnc3[nH]cc(C)c3c2)ccc1F` [Example 31, N-(2-fluoro-5-(3-methyl-1H-pyrrolo[2,3-b]pyridin-5-yl)phenyl)pent-2-ynamide], the pIC50 at ITK and at JAK3 was above 7.00 throughout.
On to `C=CC(=O)Nc1cccc(-c2cnc3[nH]cc(NS(=O)(=O)CCC)c3c2)c1` [Example 97, N-(3-(3-(propylsulfonamido)-1H-pyrrolo[2,3-b]pyridin-5-yl)phenyl)acrylamide], for which the pIC50 on ITK and on JAK3 was below 7.00 throughout.
